From publication PMC12379159 (Journal of Natural Products, 2025)
Changes are numbered by the printed parent chain.

Tests used:
[1] = tested on: EL-4-mRORγt cells; test: Resazurin conversion assay in EL-4-mRORγt cells; type: cell-based, murine; conditions: 5 μM, 20-24 h
Method: (§1) To check the metabolic activity of cells correlating with cell viability, cells were treated with the vehicle control (0.1% DMSO), digitonin as the positive control for cytotoxicity at 20 μg/mL (HEK293 cells) or 50 μg/mL (EL-4-mRORγt cells), or the compounds of interest at 5 μM for 18 h (HEK293 cells) or 20–24 h (EL-4-mRORγt cells). The next day, the medium was carefully removed and replaced with stripped DMEM without phenol red, containing 10 μg/mL resazurin sodium salt. Cells were incubated for 5 h before RFU values were measured at λem = 590 nm using a spectrophotometer. Cell viability was calculated as follows: Cell viability(%)=100×RFU value after compound treatment/RFU value after vehicle control treatment Cytotoxicity was defined as cell viability under 70% according to the ISO 10993–5 guidelines. Cell viability <90% is explicitly stated in the respective figure.

[2] = molecular target: T1, Gal4-RORγ H479L (Homo sapiens, UniProt P51449, H479L); test: Gal4-RORγ H479L mutant luciferase assay; conditions: 5 μM
T1 sequence (P51449 269-508 H479L limits assumed): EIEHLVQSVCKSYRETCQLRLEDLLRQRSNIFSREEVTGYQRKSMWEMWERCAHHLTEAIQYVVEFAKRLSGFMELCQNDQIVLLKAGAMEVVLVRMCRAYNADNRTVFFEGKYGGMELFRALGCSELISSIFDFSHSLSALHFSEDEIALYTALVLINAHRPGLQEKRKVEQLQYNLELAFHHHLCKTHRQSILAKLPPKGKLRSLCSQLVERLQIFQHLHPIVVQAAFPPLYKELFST
Method: Gal4-hRORγ H323A and H479L mutants were generated using the QuikChange Lightning Site-Directed Mutagenesis Kit according to the manufacturer’s instructions. Briefly, 10 ng template DNA (Gal4-hRORγ) was PCR-amplified with the respective mutagenic forward and reverse primers listed in Table S3, which were designed using the QuikChange Primer Design tool (https://www.agilent.com/store/primerDesignProgram.jsp). […] Two μL of the PCR product were then transformed into XL1-Blue competent E. coli according to a protocol provided by NEB. […] After centrifuging the main culture at 5691g for 10 min, the supernatant was decanted, and plasmid preparation was performed using the PureLink HiPure Plasmid Midiprep Kit according to the manufacturer’s instructions. DNA yields and purities were checked using a NanoDrop 2000c (Thermo Fisher Scientific, Waltham, MA, USA).

[3] = tested on: Il17a and Il17f (Il17a/f); test: RT-qPCR of Il17a and Il17f in EL-4-mRORγt cells; type: cell-based, murine; conditions: indicated concentrations, 20–24 h, then 4.5-h PMA and ionomycin
Method: (§2) For RT-qPCR assays, 5 × 10^5 EL-4-mRORγt cells were seeded in 500 μL complete DMEM per well of a 24-well plate and treated with the vehicle control, the positive control, or the compounds of interest. After incubation for 20–24 h, cells were stimulated with Cell Activation Cocktail (PMA: 40.5 μM, ionomycin: 669.3 μM; 500X) for 4.5 h. Afterward, total RNA was isolated using the innuPREP RNA Mini Kit 2.0 according to the manufacturer’s instructions. According to the manufacturer’s instructions, 1 μg RNA was reverse-transcribed into cDNA using the High-Capacity cDNA Reverse Transcription Kit. RT-qPCR was performed using the Luna Universal qPCR Master Mix on a LightCycler 480 (Roche Diagnostics, Rotkreuz, Switzerland) according to the manufacturer’s instructions. […] Livak’s 2−ΔΔCt method was employed to determine the expression levels of RORγ target genes. This involved normalizing the target gene expression to the expression levels of the control gene 18s, followed by further normalization to the vehicle control.

[4] = molecular target: T2, full-length human RORγ (Homo sapiens, UniProt P51449); test: Full-length RORγ luciferase assay (RORE-LUC reporter); type: cell-based; conditions: HEK293 cells
T2 construct: Encodes for the full-length human RORγ; expressed in transfected cells; host or cells: HEK293
T2 sequence (P51449 1-518): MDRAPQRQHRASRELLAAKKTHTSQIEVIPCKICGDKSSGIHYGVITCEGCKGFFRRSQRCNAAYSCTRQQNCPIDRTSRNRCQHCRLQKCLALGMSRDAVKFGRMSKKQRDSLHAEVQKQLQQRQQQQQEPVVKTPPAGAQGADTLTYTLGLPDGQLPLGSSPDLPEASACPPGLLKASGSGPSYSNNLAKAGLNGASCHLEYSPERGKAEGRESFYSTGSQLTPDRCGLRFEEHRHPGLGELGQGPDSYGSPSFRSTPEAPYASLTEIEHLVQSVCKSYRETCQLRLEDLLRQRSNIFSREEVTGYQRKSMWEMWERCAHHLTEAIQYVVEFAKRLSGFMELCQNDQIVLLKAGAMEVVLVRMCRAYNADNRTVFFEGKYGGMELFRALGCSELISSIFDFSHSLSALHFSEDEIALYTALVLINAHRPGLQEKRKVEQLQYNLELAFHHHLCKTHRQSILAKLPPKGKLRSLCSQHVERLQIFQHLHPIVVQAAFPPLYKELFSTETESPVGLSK
Method: (§3) For luciferase assays, 8 × 10^6 HEK293 cells were seeded on 150 mm cell culture dishes and incubated for 5 h. Afterward, cells were transfected with the calcium phosphate coprecipitation method using 5 μg of the nuclear receptor (Gal4-hRORγ or full-length human RORγ), 5 μg of a luciferase reporter (pTK-MH100 × 4-LUC for Gal4-hRORγ experiments or RORE-LUC for full-length human RORγ experiments) and 3 μg eGFP-N1 (for assessing transfection efficiency) plasmid DNA and incubated overnight. […] The medium was changed the following day, and cells were further incubated for another four to 5 h before trypsin/EDTA was added to detach them from the dishes. […] RLUs were normalized to relative fluorescence units (RFU) to account for differences in cell number and transfection efficiency and then normalized to the vehicle control. Results are expressed as fold activation relative to the vehicle control.
(§4) Concentration–response data were analyzed in GraphPad Prism version 10 by three-parameter logistic nonlinear regression, with the Hill slope constrained to a theoretical value of −1.0. An IC50 value was determined only for compounds yielding a statistically reliable fit. […] In these cases, only the maximal inhibition achieved at the highest tested concentration (I max(%) at 5 μM) is reported, calculated as follows: Imax(%)=(1−Bottom/Top)×100 (“top” = baseline activity measured at the lowest concentration, “bottom” = residual activity observed at the highest concentration, corresponding to the maximal inhibitory effect).

[5] = molecular target: T3, Gal4-hRORγ (Homo sapiens, UniProt P51449); test: Gal4-RORγ mammalian one-hybrid luciferase assay; type: cell-based; conditions: HEK293 cells
T3 construct: Encodes for a hRORγ-LBD:Gal4-DBD fusion protein; expressed in transfected cells; host or cells: HEK293
T3 sequence (P51449 269-508 limits assumed): T1 sequence (P51449 269-508 H479L limits assumed) with L211H
Method: as §3, §4

[6] = molecular target: T4, luciferase (Photinus pyralis, UniProt P08659); test: Direct luciferase inhibition check (cells transfected only with pTK-MH100 × 4-LUC and eGFP-N1); type: cell-based; conditions: 5 μM
T4 construct: expressed in transfected cells; host or cells: HEK293
T4 sequence (P08659 whole entry): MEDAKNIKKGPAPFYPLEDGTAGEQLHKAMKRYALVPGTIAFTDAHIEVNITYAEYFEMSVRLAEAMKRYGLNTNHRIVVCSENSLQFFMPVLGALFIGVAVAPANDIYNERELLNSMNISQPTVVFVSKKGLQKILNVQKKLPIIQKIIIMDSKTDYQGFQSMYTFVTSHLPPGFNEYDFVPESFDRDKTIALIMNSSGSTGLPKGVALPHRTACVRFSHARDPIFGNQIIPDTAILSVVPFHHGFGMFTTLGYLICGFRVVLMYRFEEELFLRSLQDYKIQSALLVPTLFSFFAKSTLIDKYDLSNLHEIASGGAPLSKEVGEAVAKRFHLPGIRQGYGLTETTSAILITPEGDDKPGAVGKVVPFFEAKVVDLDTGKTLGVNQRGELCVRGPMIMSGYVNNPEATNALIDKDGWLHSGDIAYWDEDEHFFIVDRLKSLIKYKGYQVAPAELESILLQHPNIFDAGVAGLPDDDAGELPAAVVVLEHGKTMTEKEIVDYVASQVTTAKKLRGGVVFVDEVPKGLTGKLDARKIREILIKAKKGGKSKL
Method: as §3

[7] = tested on: HEK293 cells; test: Resazurin conversion assay in HEK293 cells; type: cell-based, human; conditions: 5 μM, 18 h
Method: as §1

[8] = tested on: interleukin 23 receptor (Il23r); test: RT-qPCR of Il23r in EL-4-mRORγt cells; type: cell-based, murine; conditions: indicated concentrations, 20–24 h, then 4.5-h PMA and ionomycin
Method: as §2

C=C(C)[C@@H]1CC[C@]2(C(=O)O)CC[C@]3(C)[C@H](CC[C@@H]4[C@@]5(C)C/C(=C/c6ccco6)C(=O)C(C)(C)[C@@H]5CC[C@]43C)[C@@H]12 [Compound 15, (2Z)-2-(2-furanylmethylene)-3-oxolup-20(29)-en-28-oic acid]
Cytotoxic effects, resazurin conversion assay [1]: no cytotoxic effects
Activity on Gal4-RORγ H479L vs WT [2]: loss of activity
Il17a expression [3]: failed to affect Il17a expression levels
Il17f expression [3]: slight yet concentration-dependent decrease
Imax(%) at 5 μM, full-length RORγ luciferase assay ([4]; 5 μM): 69%
IC50 ([4]; 18 h treatment, up to 5 μM, read-out: IC50, full-length RORγ luciferase assay): 900 nM
Activity in Gal4-RORγ luciferase assay (initial screen) ([5]; 3 μM): new inverse agonist of RORγ
Imax(%) at 5 μM, Gal4-RORγ luciferase assay ([5]; 5 μM): 76%
IC50 ([5]; 18 h treatment, up to 5 μM): 400 nM
Inhibition of luciferase enzyme activity [6]: did not inhibit luciferase enzyme activity
Cytotoxic effects, resazurin conversion assay [7]: no cytotoxic effects
Il23r expression [8]: concentration-dependent down-regulation
